According to patent US20250382346A1, “NEURONAL PROMOTERS AND USES THEREOF” (priority 2023, published 2025):

Test system: hM3Dq or rM3Ds
Assay: Locomotion test in macaques after nigral DREADD AAV and CNO
Assay type: in vivo
Procedure: To guide the virus injection in SNr, a guide grid of multiple holes spaced by 1 mm was installed on each subject vertically above the SN. By filling vitamin E in these holes, the accurate coordinates for injection could be obtained from the T1-weighted MRI images (3T Tim Trio scanner, Siemens). Virus injections were performed in nine sites covering the whole SNr, and a total volume of 27 μL virus was unilaterally injected in the right SNr at the speed of 300 nL/min.
To intracranially administrate drug and/or perform electrophysiological recording, a recording chamber covering from anterior caudate to posterior GPi was fixed on the skull with 6 titanium screws and dental cement. Each subject was allowed to recover from the surgery for at least 6 weeks prior to further studies.
Locomotion Test: The locomotion tests for monkeys were conducted in a custom-made observation cage (100 cm×100 cm×100 cm). The top and front of the cage were made of toughened glass in order to gain a clear view for behavioral recording. Monkeys were habituated to the observation cage by placing them inside for 30 minutes on three separate days.
For monkeys injected with AAV8R12-G88P3-HA-hM3Dq, CNO was intracranially infused into the dorsomedial caudate through the recording chamber. To infuse while the animal was awake, the monkey was trained to sit in a primate chair specially designed with its head fixed to the primate chair by a mask made of thermoplastic materials. Injections were conducted through a 33-Gauge needle connected to a 250 μL syringe via a polyethylene pipe (Hamilton, Neuros). […] The needle was held for 5 minutes for drug diffusion before retraction. For monkeys injected with AAV8R12-G88P7-rM3Ds-2A-EYFP, CNO was infused via intramuscular injection (10 mg/kg). […] Videos capturing the subjects' behavior were recorded for at least 90 minutes. Animal behaviors from 30-90 minutes after saline/CNO infusion were further analyzed and quantified.
For rotation analysis, only movements that occurred lower than 30 cm on the z-axis were counted. To determine the direction of the rotation, we first computed the center for the rotation data in the x-y plane as (x0, y0) by averaging all data points, and then we computed the angle relative to (x0, y0) for each time point by the following formula:
where θi represents the rotating angle at time i, and (xi, yi) represents the x-y coordinate at time i. We then calculated the change of rotating angle as Δθi=θi−θi−1. For right nigral injections, when Δθ<0, the direction of the rotation was anticlockwise and was labeled as a contraversive rotation. When Δθ>0, the direction of the rotation was clockwise and was labeled as an ipsiversive rotation. The raw data were analyzed and plotted through a custom R package. Code is available on Github (github.com/chenyef/PD_ana/blob/main/Behavior_ana.txt).

C[N+]1([O-])CCN(C2=Nc3cc(Cl)ccc3Nc3ccccc32)CC1 [CNO, Clozapine-N-oxide]
muscle tone, electromyogram recordings (following CNO infusions, macaques): increase in the muscle tone of the contralateral biceps brachii | contraversive rotations (FIG. 10C), mean±SEM (hM3Dq (intracranial CNO) or rM3Ds (systemic CNO) macaques, n=4, saline 1.004±0.2667): 6.649±1.662 | velocity of ipsiversive rotations (FIG. 10H), mean±SEM (n=4 macaques, saline 37.43±3.264, not significant): 41.37±6.566 | speed during contraversive rotations (FIG. 10G), mean±SEM (n=4 macaques, saline 38.42±5.465): 46.98±6.669 | time in the top portion of the observing cage (FIG. 10D), mean±SEM (n=4 macaques, saline 68.42±10.7): 33.74±2.641 | total distance (FIG. 10F), mean±SEM (n=4 macaques, saline 71.53±15.4, not significant): 97.37±19.41 | immobile time (FIG. 10E), mean±SEM (n=4 macaques, saline 107.1±2.322, not significant): 89.13±8.379
